Laboratory results reported in ChEMBL document CHEMBL4011590, “Structure-activity relationship studies on 3,5-dinitrophenyl tetrazoles as antitubercular agents” (Eur J Med Chem, 2017).
≈ marks a conversion by molar mass, not a printed value.

Experiments:
Format in all cases: functional
[1] = system: Staphylococcus epidermidis; experiment: Antibacterial activity against Staphylococcus epidermidis HK6966/08 after 24 hrs by broth microdilution method; details: HK6966/08, 24 h
[2] = system: Candida albicans; experiment: Antifungal activity against Candida albicans ATCC 44859 after 48 hrs by broth microdilution method; details: ATCC 44859, 48 h
[3] = system: Staphylococcus aureus; experiment: Antibacterial activity against methicillin-resistant Staphylococcus aureus HK5996/08 after 24 hrs by broth microdilution method; details: HK5996/08, 24 h
[4] = system: Pseudomonas aeruginosa; experiment: Antibacterial activity against Pseudomonas aeruginosa ATCC 9027 after 24 hrs by broth microdilution method
[5] = system: Escherichia coli; experiment: Antibacterial activity against Escherichia coli ATCC 8739 after 24 hrs by broth microdilution method
[6] = system: Escherichia coli; experiment: Antibacterial activity against Escherichia coli ATCC 8739 after 48 hrs by broth microdilution method; details: ATCC 8739, 48 h
[7] = system: Nakaseomyces glabratus; experiment: Antifungal activity against Candida glabrata 20/I after 48 hrs by broth microdilution method
[8] = system: Klebsiella pneumoniae; experiment: Antibacterial activity against Klebsiella pneumoniae HK11750/08 after 24 hrs by broth microdilution method
[9] = system: Trichosporon asahii; experiment: Antifungal activity against Trichosporon asahii 1188 after 24 hrs by broth microdilution method; details: Trichosporon asahii, 1188, 24 h
[10] = system: Trichophyton mentagrophytes; experiment: Antifungal activity against Trichophyton mentagrophytes 445 after 120 hrs by broth microdilution method; details: Trichophyton mentagrophytes, 445, 120 h
[11] = system: Lichtheimia corymbifera; experiment: Antifungal activity against Absidia corymbifera 272 after 24 hrs by broth microdilution method; details: Lichtheimia corymbifera, 272, 24 h
[12] = system: Mycobacterium kansasii; experiment: Antimycobacterial activity against Mycobacterium kansasii isolate 6509/96 after 14 days by micromethod; details: isolate 6509/96, 336 h
[13] = system: Enterococcus sp.; experiment: Antibacterial activity against Enterococcus sp. HK14365/08 after 24 hrs by broth microdilution method; details: HK14365/08, 24 h
[14] = system: Aspergillus fumigatus; experiment: Antifungal activity against Aspergillus fumigatus 231 after 24 hrs by broth microdilution method; details: Aspergillus fumigatus, 231, 24 h
[15] = system: Klebsiella pneumoniae; experiment: Antibacterial activity against Klebsiella pneumoniae HK11750/08 after 48 hrs by broth microdilution method; details: HK11750/08, 48 h
[16] = system: Mycobacterium kansasii; experiment: Antimycobacterial activity against Mycobacterium kansasii isolate 6509/96 after 21 days by micromethod; details: isolate 6509/96, 504 h
[17] = system: Staphylococcus aureus; experiment: Antibacterial activity against methicillin-resistant Staphylococcus aureus HK5996/08 after 48 hrs by broth microdilution method; details: HK5996/08, 48 h
[18] = system: Klebsiella pneumoniae; experiment: Antibacterial activity against extended spectrum beta-lactamase producing Klebsiella pneumoniae HK14368/08 after 24 hrs by broth microdilution method
[19] = system: Trichophyton mentagrophytes; experiment: Antifungal activity against Trichophyton mentagrophytes 445 after 72 hrs by broth microdilution method; details: Trichophyton mentagrophytes, 445, 72 h
[20] = system: Lichtheimia corymbifera; experiment: Antifungal activity against Absidia corymbifera 272 after 48 hrs by broth microdilution method; details: Lichtheimia corymbifera, 272, 48 h
[21] = system: Trichosporon asahii; experiment: Antifungal activity against Trichosporon asahii 1188 after 48 hrs by broth microdilution method; details: Trichosporon asahii, 1188, 48 h
[22] = system: Mycobacterium tuberculosis; experiment: Antimycobacterial activity against Mycobacterium tuberculosis H37Rv CNCTC My 331/88 after 21 days by micromethod; details: H37Rv CNCTC My 331/88, 504 h
[23] = system: Mycobacterium kansasii; experiment: Antimycobacterial activity against Mycobacterium kansasii CNCTC My 235/80 after 14 days by micromethod; details: CNCTC My 235/80, 336 h
[24] = system: Staphylococcus epidermidis; experiment: Antibacterial activity against Staphylococcus epidermidis HK6966/08 after 48 hrs by broth microdilution method; details: HK6966/08, 48 h
[25] = system: Aspergillus fumigatus; experiment: Antifungal activity against Aspergillus fumigatus 231 after 48 hrs by broth microdilution method; details: Aspergillus fumigatus, 231, 48 h
[26] = system: Mycobacterium kansasii; experiment: Antimycobacterial activity against Mycobacterium kansasii CNCTC My 235/80 after 7 days by micromethod; details: CNCTC My 235/80, 168 h
[27] = system: Mycobacterium kansasii; experiment: Antimycobacterial activity against Mycobacterium kansasii isolate 6509/96 after 7 days by micromethod; details: isolate 6509/96, 168 h
[28] = system: Mycobacterium tuberculosis; experiment: Antimycobacterial activity against Mycobacterium tuberculosis H37Rv CNCTC My 331/88 after 14 days by micromethod; details: H37Rv CNCTC My 331/88, 336 h
[29] = system: Staphylococcus aureus; experiment: Antibacterial activity against Staphylococcus aureus ATCC 6538 after 48 hrs by broth microdilution method; details: ATCC 6538, 48 h
[30] = system: Pichia kudriavzevii; experiment: Antifungal activity against Candida krusei E28 after 48 hrs by broth microdilution method; details: E28, 48 h
[31] = system: Candida albicans; experiment: Antifungal activity against Candida albicans ATCC 44859 after 24 hrs by broth microdilution method; details: ATCC 44859, 24 h
[32] = system: Staphylococcus aureus; experiment: Antibacterial activity against Staphylococcus aureus ATCC 6538 after 24 hrs by broth microdilution method; details: ATCC 6538, 24 h
[33] = system: Candida tropicalis; experiment: Antifungal activity against Candida tropicalis 156 after 24 hrs by broth microdilution method; details: Candida tropicalis, 156, 24 h
[34] = system: Mycobacterium kansasii; experiment: Antimycobacterial activity against Mycobacterium kansasii CNCTC My 235/80 after 21 days by micromethod; details: CNCTC My 235/80, 504 h
[35] = system: Candida tropicalis; experiment: Antifungal activity against Candida tropicalis 156 after 48 hrs by broth microdilution method; details: Candida tropicalis, 156, 48 h
[36] = system: Pseudomonas aeruginosa; experiment: Antibacterial activity against Pseudomonas aeruginosa ATCC 9027 after 48 hrs by broth microdilution method; details: ATCC 9027, 48 h
[37] = system: Enterococcus sp.; experiment: Antibacterial activity against Enterococcus sp. HK14365/08 after 48 hrs by broth microdilution method; details: HK14365/08, 48 h
[38] = system: Pichia kudriavzevii; experiment: Antifungal activity against Candida krusei E28 after 24 hrs by broth microdilution method; details: E28, 24 h
[39] = system: Nakaseomyces glabratus; experiment: Antifungal activity against Candida glabrata 20/I after 24 hrs by broth microdilution method
[40] = system: Klebsiella pneumoniae; experiment: Antibacterial activity against extended spectrum beta-lactamase producing Klebsiella pneumoniae HK14368/08 after 48 hrs by broth microdilution method; details: HK14368/08, 48 h
[41] = system: Mycobacterium avium; experiment: Antimycobacterial activity against Mycobacterium avium CNCTC My 330/80 after 21 days by micromethod; details: CNCTC My 330/80, 504 h
[42] = system: Mycobacterium avium; experiment: Antimycobacterial activity against Mycobacterium avium CNCTC My 330/80 after 14 days by micromethod; details: CNCTC My 330/80, 336 h

Compound: O=[N+]([O-])c1cc(-c2nnn(CSc3nnnn3-c3ccccc3)n2)cc([N+](=O)[O-])c1
- MIC [1]: > 125 µM
- MIC [2]: > 125 µM
- MIC [3]: > 125 µM
- MIC ([4]; ATCC 9027, 24 h): > 125 µM
- MIC ([5]; ATCC 8739, 24 h): > 125 µM
- MIC [6]: > 125 µM
- MIC [7]: > 125 µM
- MIC ([8]; HK11750/08, 24 h): > 125 µM
- MIC [9]: > 125 µM
- MIC [10]: > 125 µM
- MIC [11]: > 125 µM
- MIC99 [12]: 1 µM (≈ 0.426 µg/mL)
- MIC [13]: > 125 µM
- MIC [14]: > 125 µM
- MIC [15]: > 125 µM
- MIC99 [16]: 2 µM (≈ 0.853 µg/mL)
- MIC [17]: > 125 µM
- MIC ([18]; HK14368/08, 24 h): > 125 µM
- MIC [19]: > 125 µM
- MIC [20]: > 125 µM
- MIC [21]: > 125 µM
- MIC99 [22]: 0.25 µM (≈ 0.107 µg/mL)
- MIC99 [23]: 2 µM (≈ 0.853 µg/mL)
- MIC [24]: > 125 µM
- MIC [25]: > 125 µM
- MIC99 [26]: 1 µM (≈ 0.426 µg/mL)
- MIC99 [27]: 0.5 µM (≈ 0.213 µg/mL)
- MIC99 [28]: 0.125 µM (≈ 0.0533 µg/mL)
- MIC [29]: > 125 µM
- MIC [30]: > 125 µM
- MIC [31]: > 125 µM
- MIC [32]: > 125 µM
- MIC [33]: > 125 µM
- MIC99 [34]: 4 µM (≈ 1.71 µg/mL)
- MIC [35]: > 125 µM
- MIC [36]: > 125 µM
- MIC [37]: > 125 µM
- MIC [38]: > 125 µM
- MIC [39]: > 125 µM
- MIC [40]: > 125 µM

Compound: CN[C@H](CC(C)C)C(=O)N[C@H]1C(=O)N[C@@H](CC(N)=O)C(=O)N[C@H]2C(=O)N[C@H]3C(=O)N[C@H](C(=O)N[C@H](C(=O)O)c4cc(O)cc(O)c4-c4cc3ccc4O)[C@H](O)c3ccc(c(Cl)c3)Oc3cc2cc(c3O[C@@H]2O[C@H](CO)[C@@H](O)[C@H](O)[C@H]2O[C@H]2C[C@](C)(N)[C@H](O)[C@H](C)O2)Oc2ccc(cc2Cl)[C@H]1O [VANCOMYCIN]
- MIC [1]: 0.35 µM (≈ 0.507 µg/mL)
- MIC [3]: 0.35 µM (≈ 0.507 µg/mL)
- MIC [13]: 0.7 µM (≈ 1.01 µg/mL)
- MIC [32]: 0.35 µM (≈ 0.507 µg/mL)

Compound: O=[N+]([O-])c1cc(-c2nnn(CSc3nnnn3Cc3ccccc3)n2)cc([N+](=O)[O-])c1
- MIC [1]: > 125 µM
- MIC [2]: > 125 µM
- MIC99 [41]: 32 µM (≈ 14.1 µg/mL)
- MIC [3]: > 125 µM
- MIC ([4]; ATCC 9027, 24 h): > 125 µM
- MIC ([5]; ATCC 8739, 24 h): > 125 µM
- MIC [6]: > 125 µM
- MIC [7]: > 125 µM
- MIC ([8]; HK11750/08, 24 h): > 125 µM
- MIC [9]: > 125 µM
- MIC [10]: > 125 µM
- MIC [11]: > 125 µM
- MIC99 [42]: 16 µM (≈ 7.05 µg/mL)
- MIC99 [12]: 4 µM (≈ 1.76 µg/mL)
- MIC [13]: > 125 µM
- MIC [14]: > 125 µM
- MIC [15]: > 125 µM
- MIC99 [16]: 4 µM (≈ 1.76 µg/mL)
- MIC [17]: > 125 µM
- MIC ([18]; HK14368/08, 24 h): > 125 µM
- MIC [19]: > 125 µM
- MIC [20]: > 125 µM
- MIC [21]: > 125 µM
- MIC99 [22]: 0.125 µM (≈ 0.0551 µg/mL)
- MIC99 [23]: 4 µM (≈ 1.76 µg/mL)
- MIC [24]: > 125 µM
- MIC [25]: > 125 µM
- MIC99 [26]: 2 µM (≈ 0.881 µg/mL)
- MIC99 [27]: 2 µM (≈ 0.881 µg/mL)
- MIC99 [28]: 0.125 µM (≈ 0.0551 µg/mL)
- MIC [29]: > 125 µM
- MIC [30]: > 125 µM
- MIC [31]: > 125 µM
- MIC [32]: > 125 µM
- MIC [33]: > 125 µM
- MIC99 [34]: 4 µM (≈ 1.76 µg/mL)
- MIC [35]: > 125 µM
- MIC [36]: > 125 µM
- MIC [37]: > 125 µM
- MIC [38]: > 125 µM
- MIC [39]: > 125 µM
- MIC [40]: > 125 µM

Compound: GENTAMICIN
- MIC [4]: 1 µM
- MIC [5]: 0.26 µM
- MIC [8]: 0.26 µM
- MIC [18]: 0.26 µM
